Measured values as given in patent US8865756B2, “Inhibitors of HCV NS5A” (Presidio Pharmaceuticals, Inc., priority 2008, dated 2014).

Each molecule was assayed on HCV 1b_Huh-Luc/Neo-ET cell line persistently expressing a bicistronic genotype 1b replicon in Huh 7 cells (assay: HCV replicon assay (luciferase readout)). Conditions: Hepatitis C virus, Huh-7, 72 h, read-out: Inhibition of HCV genotype 1b.
Type: cell-based
How it was run: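 EC50, determined repeatedly, comes from a four-parameter logistic fit of luciferase signal as percent of untreated control. Readout follows 72 h compound exposure, in triplicate, of the HCV 1b_Huh-Luc/Neo-ET replicon line.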

**Q.** For `COC(=O)N[C@H](C(=O)N1CCC[C@H]1c1ncc(-c2ccc(C#Cc3ccc(-c4cnc([C@@H]5CCCN5C(=O)[C@@H](C(C)C)N(C)C)[nH]4)cc3)cc2)[nH]1)C(C)C` [Compound 954], which EC50 is on record?
**A.** The EC50 was 1 to 9.9 nM.

**Q.** Which EC50 does the source give for `COC(=O)N[C@H](C(=O)N[C@@H](C)c1ncc(-c2ccc(C#Cc3ccc(-c4cnc([C@@H]5CCCN5C(=O)[C@@H](c5ccccc5)N(C)C)[nH]4)cc3)cc2)[nH]1)C(C)C` [Compound 965] here?
**A.** The EC50 was < 1 nM.

**Q.** With `C[C@H]1OC(=O)N(C)[C@@H]1C(=O)N1CCC[C@H]1c1ncc(-c2ccc(C#Cc3ccc(-c4cnc([C@@H]5CCCN5C(=O)[C@@H]5[C@@H](C)OC(=O)N5C)[nH]4)cc3)cc2)[nH]1` [Compound 980] as the molecule, how does the EC50 read?
**A.** The EC50 was 10 to 999 nM.

**Q.** `COC(=O)N[C@@H](C(=O)N1CCC[C@H]1c1ncc(-c2ccc(C#Cc3ccc(-c4cnc([C@@H]5CCCN5C(=O)[C@@H](c5ccccc5)N5CCCC5)[nH]4)cc3)cc2)[nH]1)c1ccccc1` [Compound 178] was tested. Which EC50 did it give?
**A.** The EC50 was < 1 nM.

**Q.** For `CC(C)(C)OC(=O)N1CCC[C@H]1c1ncc(C#Cc2ccc(-c3cnc([C@@H]4CCCN4C(=O)OC(C)(C)C)[nH]3)cc2)[nH]1` [Compound 101], which EC50 is on record?
**A.** Its EC50 is 10 to 999 nM.

**Q.** With `COC[C@H](NC(=O)OC)C(=O)N1CCC[C@H]1c1ncc(-c2ccc(C#Cc3ccc(-c4cnc([C@@H]5CCCN5C(=O)[C@H](COC)NC(=O)OC)[nH]4)cc3)cc2)[nH]1` [Compound 976] as the molecule, how does the EC50 read?
**A.** The EC50 was < 1 nM.

**Q.** Which EC50 does the source give for `O=C(N[C@@H](C(=O)N1CCC[C@H]1c1cc(-c2ccc(C#Cc3ccc(-c4cnc([C@@H]5CCCN5C(=O)[C@H](NC(=O)N5CCOCC5)c5ccccc5)[nH]4)cc3)cc2)n[nH]1)c1ccccc1)N1CCOCC1` [Compound 220] here?
**A.** The EC50 was < 1 nM.

**Q.** Which EC50 does the source give for `COC(=O)N[C@@H](C(=O)N1CCC[C@H]1CNC(=O)c1ccc(C#Cc2ccc(-c3cnc([C@@H]4CCCN4C(=O)[C@H](NC(=O)OC)c4ccccc4)[nH]3)cc2)cc1)c1ccccc1` [Compound 211] here?
**A.** The EC50 was < 1 nM.

**Q.** How did the EC50 turn out when `COC(=O)N[C@H](C(=O)N1C[C@H](F)C[C@H]1c1ncc(-c2ccc(C#Cc3ccc4nc([C@@H]5CCCN5C(=O)[C@@H](NC(=O)OC)C(C)C)[nH]c4c3)cc2)[nH]1)C(C)C` [Compound 1040] was run?
**A.** Its EC50 is < 1 nM.

**Q.** `COC(=O)N[C@@H](C(=O)N1CCC[C@H]1c1ncc(-c2ccc(C#Cc3ccc(C(=O)NC[C@@H]4CCCN4C(=O)[C@H](NC(=O)N4CCOCC4)c4ccccc4)cc3)cc2)[nH]1)c1ccccc1` [Compound 235] was tested. Which EC50 did it give?
**A.** Its EC50 is < 1 nM.

**Q.** For `COC(=O)N[C@@H](C(=O)N1CCC[C@H]1c1ncc(-c2ccc(C#Cc3ccc(-c4cnc([C@@H]5CCCN5C(=O)OCc5ccccc5)[nH]4)cc3)cc2)[nH]1)c1ccccc1` [Compound 200], which EC50 is on record?
**A.** The EC50 was < 1 nM.

**Q.** Which EC50 does the source give for `O=C(N[C@@H](C(=O)N1CCC[C@H]1C(=O)Nc1ccc(C#Cc2ccc(-c3cnc([C@@H]4CCCN4C(=O)[C@H](NC(=O)C4CC4)c4ccccc4)[nH]3)cc2)cc1)c1ccccc1)C1CC1` [Compound 166] here?
**A.** The EC50 was < 1 nM.

**Q.** How did the EC50 turn out when `COC(=O)N[C@@H](C(=O)N1CCC[C@H]1c1ncc(-c2ccc(C#Cc3ccc4nc([C@@H]5CCCN5C(=O)[C@H](NC(=O)OC)c5ccccc5)[nH]c4c3)cc2)[nH]1)c1ccccc1` [Compound 800] was run?
**A.** The EC50 was < 1 nM.

**Q.** With `COC(=O)N[C@@H](C(=O)N1CCC[C@H]1c1ncc(-c2ccc(C#Cc3ccc(-c4cnc([C@@H]5CCCN5C(=O)[C@H](C)c5ccccc5)[nH]4)cc3)cc2)[nH]1)c1ccccc1` [Compound 256] as the molecule, how does the EC50 read?
**A.** The EC50 was < 1 nM.

**Q.** `CN1CCN(C(=O)N[C@@H](C(=O)N2CCC[C@H]2c2ncc(C#Cc3ccc(C#Cc4cnc([C@@H]5CCCN5C(=O)[C@H](NC(=O)N5CCN(C)CC5)c5ccccc5)[nH]4)cc3)[nH]2)c2ccccc2)CC1` [Compound 310] was tested. Which EC50 did it give?
**A.** Its EC50 is 1 to 9.9 nM.

**Q.** For `COC(=O)N[C@H](C(=O)N1CCC[C@H]1c1ncc(C#Cc2ccc(-c3cnc([C@@H]4CCCN4C(=O)[C@@H](NC(=O)OC)C(C)C)[nH]3)cc2)[nH]1)C(C)C` [Compound 134], which EC50 is on record?
**A.** The EC50 was < 1 nM.

**Q.** For `COC(=O)N[C@H](C(=O)N1CCC[C@H]1c1ncc(-c2ccc(C#Cc3ccc(-c4cnc([C@H](C)NC(=O)[C@@H](C(C)C)N(C)C)[nH]4)cc3)cc2)[nH]1)C(C)C` [Compound 982], which EC50 is on record?
**A.** Its EC50 is 10 to 999 nM.

**Q.** How did the EC50 turn out when `C[C@@H](NC(=O)C1CC1)C(=O)N1CCC[C@H]1c1ncc(C#Cc2ccc(-c3cnc([C@@H]4CCCN4C(=O)[C@@H](C)NC(=O)C4CC4)[nH]3)cc2)[nH]1` [Compound 111] was run?
**A.** Its EC50 is 1 to 9.9 nM.

**Q.** `COC(=O)N[C@@H](C(=O)N1CCC[C@H]1c1ncc(-c2ccc(C#Cc3ccc(-c4cnc([C@@H]5CCCN5C(=O)[C@H](NS(C)(=O)=O)c5ccccc5)[nH]4)cc3)cc2)[nH]1)c1ccccc1` [Compound 225] was tested. Which EC50 did it give?
**A.** The EC50 was < 1 nM.

**Q.** With `COC(=O)NC(C(=O)N1CCC[C@H]1c1ncc(-c2ccc(C#Cc3ccc(-c4cnc([C@@H]5CCCN5C(=O)[C@@H](NC(=O)OC)C(C)C)[nH]4)cc3)cc2)[nH]1)[C@@H](C)O` (stereo partly shown) [Compound 971] as the molecule, how does the EC50 read?
**A.** Its EC50 is < 1 nM.

**Q.** How did the EC50 turn out when `COC(=O)N[C@@H](C(=O)N1CCC[C@H]1c1ncc(-c2ccc(C#Cc3cnc([C@@H]4CCCN4C(=O)[C@@H](c4ccccc4)N(C)C)[nH]3)cc2)[nH]1)c1ccccc1` [Compound 128] was run?
**A.** Its EC50 is < 1 nM.

**Q.** Which EC50 does the source give for `C[C@@H](NC(=O)OC(C)(C)C)C(=O)N1CCC[C@H]1c1ncc(C#Cc2ccc(-c3cnc([C@@H]4CCCN4C(=O)[C@@H](C)NC(=O)OC(C)(C)C)[nH]3)cc2)[nH]1` [Compound 104] here?
**A.** The EC50 was 1 to 9.9 nM.

**Q.** With `C[C@H](NC(=O)[C@@H]1CCCN1C(=O)[C@H](NC(=O)C1CC1)c1ccccc1)c1ccc(C#Cc2cnc([C@@H]3CCCN3C(=O)[C@H](NC(=O)C3CC3)c3ccccc3)[nH]2)cc1` [Compound 132] as the molecule, how does the EC50 read?
**A.** Its EC50 is 10 to 999 nM.

**Q.** Which EC50 does the source give for `COC(=O)N[C@H](C(=O)N1CCC[C@H]1c1nc(-c2ccc3cc(C#Cc4cnc([C@@H]5CCCN5C(=O)[C@@H](NC(=O)OC)C5CCOCC5)[nH]4)ccc3c2)c[nH]1)C(C)C` [Compound 1079] here?
**A.** Its EC50 is < 1 nM.

**Q.** How did the EC50 turn out when `CO[C@@H](C(=O)N1CCC[C@H]1c1ncc(-c2ccc(C#Cc3ccc(-c4cnc([C@@H]5CCCN5C(=O)[C@H](OC)c5ccccc5)[nH]4)cc3)cc2)[nH]1)c1ccccc1` [Compound 172] was run?
**A.** Its EC50 is < 1 nM.

**Q.** How did the EC50 turn out when `COC(=O)N[C@H](C(=O)N1CCCC[C@H]1c1ncc(-c2ccc(C#Cc3ccc4nc([C@@H]5CCCN5C(=O)[C@@H](NC(=O)OC)C(C)C)[nH]c4c3)cc2)[nH]1)C(C)C` [Compound 1032] was run?
**A.** Its EC50 is < 1 nM.

**Q.** `COC(=O)N[C@@H](C(=O)N1CCC[C@H]1c1ncc(-c2ccc(C#Cc3ccc(-c4cnc([C@@H]5CCCN5C(=O)[C@H](NC(=O)N5CCCC5)c5ccccc5)[nH]4)cc3)cc2)[nH]1)c1ccccc1` [Compound 243] was tested. Which EC50 did it give?
**A.** The EC50 was < 1 nM.

**Q.** For `COC(=O)N[C@@H](C(=O)N1CCC[C@H]1c1ncc(-c2ccc(C#Cc3ccc(-c4nnc([C@@H]5CCCN5C(=O)[C@H](NC(=O)OC)c5ccccc5)[nH]4)cc3)cc2)[nH]1)c1ccccc1` [Compound 247], which EC50 is on record?
**A.** Its EC50 is < 1 nM.

**Q.** With `O=C([C@H](O)c1ccccc1)N1CCC[C@H]1c1ncc(C#Cc2ccc(-c3cnc([C@@H]4CCCN4C(=O)[C@H](O)c4ccccc4)[nH]3)cc2)[nH]1` [Compound 112] as the molecule, how does the EC50 read?
**A.** Its EC50 is < 1 nM.

**Q.** Which EC50 does the source give for `COC(=O)N[C@H](C(=O)N1CCC[C@H]1c1ncc(-c2cc(C)c(C#Cc3ccc4nc([C@@H]5CCCN5C(=O)[C@@H](NC(=O)OC)C(C)C)[nH]c4c3)c(C)c2)[nH]1)C(C)C` [Compound 1060] here?
**A.** The EC50 was < 1 nM.

**Q.** Which EC50 does the source give for `C[C@@H](NC(=O)[C@@H]1CCCN1C(=O)[C@H](NC(=O)OC(C)(C)C)c1ccccc1)c1ccc(C#Cc2ccc(-c3cnc([C@@H]4CCCN4C(=O)[C@H](NC(=O)OC(C)(C)C)c4ccccc4)[nH]3)cc2)cc1` [Compound 167] here?
**A.** The EC50 was 1 to 9.9 nM.
